Assays:
A2BAR [1] = target: T1, A2BAR (Homo sapiens, UniProt P29275); test: cAMP accumulation assay in HEK293-A2B cells; assay type: cell-based; details: HEK293-A2B cells
T1 sequence (P29275 1-332): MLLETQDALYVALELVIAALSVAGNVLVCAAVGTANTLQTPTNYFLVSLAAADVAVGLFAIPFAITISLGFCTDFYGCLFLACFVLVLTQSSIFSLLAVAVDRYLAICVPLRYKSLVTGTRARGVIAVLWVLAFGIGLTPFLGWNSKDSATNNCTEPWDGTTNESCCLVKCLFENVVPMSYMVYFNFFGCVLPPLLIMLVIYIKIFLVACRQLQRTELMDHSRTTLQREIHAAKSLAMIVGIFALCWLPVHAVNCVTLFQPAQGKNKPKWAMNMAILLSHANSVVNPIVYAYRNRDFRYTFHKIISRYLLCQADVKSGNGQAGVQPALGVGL

A2BAR [2] = target: T1, A2BAR; test: cAMP accumulation assay in naive HEK293 cells; assay type: cell-based; details: naive HEK293 cells, inhibitor 30 nM, PMA 1 μM, BAY 10 μM
PKCβI = details: reported selectivity profile, ref not given; cited from earlier work
PKCγ = details: reported selectivity profile, ref not given; cited from earlier work
PKCβ2 = details: reported selectivity profile, ref not given; cited from earlier work
PKCβ = details: reported selectivity profile, ref not given; cited from earlier work

Row | SMILES | effect on PKC-induced A2BAR activation (cAMP) (A2BAR [1]; inhibitor 30 nM) | effect on PKC-induced A2BAR activation (cAMP) (A2BAR [1]; inhibitor 1 μM) | effect on PKC (PMA)-induced enhancement of BAY-induced cAMP accumulation (A2BAR [2]) | IC50 (PKCβI) [nM] | IC50 (PKCγ) [nM] | IC50 (PKCβ2) [nM] | IC50 (PKCβ) [nM]
1 | CN(C)C[C@@H]1CCn2cc(c3ccccc32)C2=C(C(=O)NC2=O)c2cn(c3ccccc23)CCO1 [LY333531] | lack of inhibition | significant inhibition | did not inhibit PMA-induced enhancement | […] | […] | […] | 
2 | Cn1cc(C2=C(c3cn(C4CCN(Cc5ccccn5)CC4)c4ccccc34)C(=O)NC2=O)c2ccccc21 [enzastaurin] |  |  | did not inhibit PMA-induced enhancement |  | […] |  | […]

From PMC10316653 (iScience, 2023)
